Test results as given in ChEMBL document CHEMBL1201862, “PubChem BioAssay data set” (2004).
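Results reflect a 48-hour exposure of cells in 96-well plates to compound at five concentrations. At the GI50, growth is halved.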 Activity calls are given as the source filed them. Cut-off read from the data, not from the text of the source: active = GI50 up to about 1.1 µM and inactive = higher.

Key:
Experiment in all cases: NCI tumour cell line growth inhibition, 48 h
[1] = system: CCRF-CEM
[2] = system: HL-60
[3] = system: HT-29
[4] = system: IGROV-1
[5] = system: KM12
[6] = system: MOLT-4
[7] = system: Malme-3M
[8] = system: OVCAR-3
[9] = system: SF-268
[10] = system: SF-295
[11] = system: SK-MEL-28
[12] = system: SK-OV-3
[13] = system: SW-620
[14] = system: UACC-62
[15] = system: HCT-116
[16] = system: SR

Measured: GI50

COC(=O)/C(Cl)=C1/CC1COCc1ccccc1 (configuration not stated)
inactive: [1] 14 µM | [2] 13.6 µM | [3] 25 µM | [4] 44.9 µM | [5] 28.7 µM | [6] 19.8 µM | [7] 26.6 µM | [8] 23.2 µM | [9] 43.8 µM | [10] 53.5 µM | [11] 21.8 µM | [12] > 100 µM | [13] 21.1 µM | [14] 23.9 µM

CCC12CCCC(=O)N1C(CO)C(c1ccccc1)O2 (configuration not stated)
inactive: [1] > 100 µM | [15] > 100 µM | [3] > 100 µM | [4] > 100 µM | [5] > 100 µM | [7] > 100 µM | [8] > 100 µM | [9] > 100 µM | [10] > 100 µM | [11] > 100 µM | [16] > 100 µM | [13] > 100 µM | [14] > 100 µM

Clc1ccc(C2=NN(c3ccccc3)C3c4cc(Br)ccc4OCC23)cc1 (configuration not stated)
inactive: [1] 61.9 µM | [15] 18.6 µM | [2] 40.8 µM | [3] 66.7 µM | [4] > 100 µM | [5] > 100 µM | [6] 40.9 µM | [7] 96.4 µM | [8] > 100 µM | [9] 53.6 µM | [10] 86.3 µM | [11] > 100 µM | [12] > 100 µM | [13] > 100 µM

COc1ccc(S(=O)(=O)NC(C)C(=O)O)cc1 (configuration not stated)
inactive: [1] > 100 µM | [2] > 100 µM | [3] > 100 µM | [4] > 100 µM | [5] > 100 µM | [6] > 100 µM | [7] > 100 µM | [8] > 100 µM | [9] > 100 µM | [10] > 100 µM | [11] > 100 µM | [12] > 100 µM | [13] > 100 µM | [14] > 100 µM

O=C1C(Cl)C(c2ccc([N+](=O)[O-])cc2)N1n1cnc2ccccc2c1=O (configuration not stated)
inactive: [1] 17.6 µM | [15] 43.9 µM | [3] > 100 µM | [4] 75.5 µM | [5] 89.9 µM | [6] 49.1 µM | [7] > 100 µM | [8] 52.4 µM | [9] 28.6 µM | [10] 17.6 µM | [11] 24.1 µM | [12] 9.75 µM | [13] 97.7 µM | [14] 70.5 µM

Nc1ccc(C(=O)NN2C(=O)C(Cl)C2c2cccc([N+](=O)[O-])c2)cc1 (configuration not stated)
inactive: [1] 9.79 µM | [15] 17.3 µM | [2] 20.7 µM | [3] 20.7 µM | [4] 14.3 µM | [5] 16.2 µM | [6] 15.1 µM | [7] 20.4 µM | [8] 20.5 µM | [9] 17 µM | [10] 20.5 µM | [11] 21 µM | [12] 18.7 µM | [13] 21.7 µM | [14] 21.1 µM

CCOc1ccc2c(c1)[n+]([O-])c(-c1ccccc1)c(N)[n+]2[O-]
inactive: [1] 50.7 µM | [2] 37 µM | [3] > 100 µM | [4] 82.6 µM | [5] 97.3 µM | [6] 46.8 µM | [7] 66.7 µM | [8] 82.2 µM | [9] 36.6 µM | [10] > 100 µM | [11] 33.1 µM | [12] > 100 µM | [13] > 100 µM | [14] 30.5 µM

CC(=O)Nc1ccc(C2CC(c3ccc([N+](=O)[O-])cc3)=Nc3ccccc3[S+]2[O-])cc1 (configuration not stated)
inactive: [1] 11.4 µM | [2] 17.6 µM | [3] 22.6 µM | [4] 12.7 µM | [5] 14.1 µM | [6] 12.6 µM | [7] > 10 µM | [8] 25.3 µM | [9] 36.6 µM | [10] 28.8 µM | [11] 19.6 µM | [12] 27.4 µM | [13] 20 µM | [14] 11.6 µM
